Data reported in patent publication US10016366B2, “Method of preparing lyophilized powder for injection comprising aloe and Panax pseudo-ginseng” (priority 2013, dated 2018).

Tests used:
[1] = tested on: ovariectomized mice; assay: Viscera index (thymus, spleen, uterus coefficients) of ovariectomized mice; format: in vivo, female ICR mice; settings: 1 mg/kg, one time per day, 14 days, M ± SD
Procedure: (§1) 3.1 Healthy female ICR mice weighted 20±2 g were anaesthetized by ether and fixed in the abdomen. Bilateral ovaries of the mice were extirpated via back incision below the costal bone. The wounds were stitched and the mice were cultured according to conventional methods. After the wounds were cured, vaginal smear examination was performed, one time per day for five consecutive days, to ensure the ovaries were completely extirpated. The mice in the dioestrum (observations of vaginal smears under microscope found a lot of polynuclear leucocytes and few epithelial cells) in the five consecutive days were qualified mice. 48 mice were randomly divided into 6 groups with each group 8 mice, that is, a model group (be administered with equal volume of normal saline), a diethyl stilbestrol group (1 mg/kg), J01 groups (144 mg/kg, 288 mg/kg), J02 groups (180 mg/kg, 360 mg/kg). Another 6 mice with bilateral ovaries were selected as a control group (be administered with equal volume of normal saline). The mice were administered with corresponding drugs, one time per day, for 14 consecutive days. After one hour from the last injection, blood was sampled from the orbital venous plexus, and centrifuged for 10 min at 3000 rpm. The serum was separated and the E2, LH and FSH values thereof were measured using ELISA method. Thereafter, the abdominal cavity was cut open quickly and thymus, spleen, and uterus were separated and weighed to calculate the coefficients of the thymus, spleen, and uterus.
(§2) The mice were administered with corresponding drugs, 5 mL/kg, one time per day, for 14 consecutive days.
(§3) Viscera index: coefficients of the thymus, spleen, and uterus. Viscera index=organ weight/mice body weight*10. Serum index: E2 (estradiol), LH (luteinizing hormone), FSH (follicle stimulating hormone).
(§4) The difference between groups of the measured data is examined based on ANOVA T-TEST using SPSS10.0.

[2] = tested on: ovariectomized mice; assay: Serum E2, LH and FSH of ovariectomized mice by ELISA; format: in vivo, female ICR mice; settings: 1 mg/kg, one time per day, 14 days, M ± SD
Procedure: as §1, §2, §3, §4

## CC/C(=C(/CC)c1ccc(O)cc1)c1ccc(O)cc1 [Diethylstilbestrol]
[1]
  Spleen index: 66.67 ± 16.93 mg/10 g
  Thymus index: 32.99 ± 8.11 mg/10 g
  Uterus index: 62.67 ± 11.89 mg/10 g
[2]
  E2 (Estrogen): 113.81 ± 33.85 pg/mL
  FSH (Follicle Stimulating Hormone): 22.54 ± 6.97 ng/mL
  LH (luteinizing hormone): 31.33 ± 4.51 ng/mL
